These results are taken from US8563473B2, “Aqueous herbicidal concentrates of auxinic carboxylic acids with reduced eye irritancy” (Dow AgroSciences, LLC., priority 2010, dated 2013).

One series deals with susceptible plants. As to conditions: concentrate diluted in water, applied postemergently; disclosed in WO 2008/106107 A1; cited from earlier work.
A short description of series [1]: Cold temperature stability / storage of aqueous concentrates. The class given is physicochemical. To be noted: […] salt solution ([…] acid equivalent) stored at −10° C. for 14 days.

Regarding choline salt of 2,4-D [2,4-D choline], in the series with susceptible plants, the Weed control entry is “good weed control”.

triclopyr choline salt: the Crystallization on storage entry in series [1] is “did not show any crystallization”.
